Experimental data reported in US8592422B2, “Bicyclic triazole and pyrazole lactams as allosteric modulators of mGluR5 receptors” (Vanderbilt University, priority 2010, dated 2013).

target: T1, human mGluR5a receptor (Homo sapiens, UniProt P41594); assay: Cell-based functional Ca2+ mobilization assay (FDSS), potentiation of glutamate EC20 response; settings: EC50 (nM), HEK cells transfected with human mGluR5 (H10H or H12H); in presence of EC20 glutamate
T1 construct: cDNA subcloned into pcDNA3.1(-)
How it was run: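 HEK293A cells stably expressing human mGluR5a (H10H or H12H clones), plated overnight in glutamate-glutamine-free medium, loaded with Ca2+-sensitive dye (e.g. Fluo-4) and read on FDSS.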

T1 sequence (P41594 21-1180 isoform P41594-2 limits assumed): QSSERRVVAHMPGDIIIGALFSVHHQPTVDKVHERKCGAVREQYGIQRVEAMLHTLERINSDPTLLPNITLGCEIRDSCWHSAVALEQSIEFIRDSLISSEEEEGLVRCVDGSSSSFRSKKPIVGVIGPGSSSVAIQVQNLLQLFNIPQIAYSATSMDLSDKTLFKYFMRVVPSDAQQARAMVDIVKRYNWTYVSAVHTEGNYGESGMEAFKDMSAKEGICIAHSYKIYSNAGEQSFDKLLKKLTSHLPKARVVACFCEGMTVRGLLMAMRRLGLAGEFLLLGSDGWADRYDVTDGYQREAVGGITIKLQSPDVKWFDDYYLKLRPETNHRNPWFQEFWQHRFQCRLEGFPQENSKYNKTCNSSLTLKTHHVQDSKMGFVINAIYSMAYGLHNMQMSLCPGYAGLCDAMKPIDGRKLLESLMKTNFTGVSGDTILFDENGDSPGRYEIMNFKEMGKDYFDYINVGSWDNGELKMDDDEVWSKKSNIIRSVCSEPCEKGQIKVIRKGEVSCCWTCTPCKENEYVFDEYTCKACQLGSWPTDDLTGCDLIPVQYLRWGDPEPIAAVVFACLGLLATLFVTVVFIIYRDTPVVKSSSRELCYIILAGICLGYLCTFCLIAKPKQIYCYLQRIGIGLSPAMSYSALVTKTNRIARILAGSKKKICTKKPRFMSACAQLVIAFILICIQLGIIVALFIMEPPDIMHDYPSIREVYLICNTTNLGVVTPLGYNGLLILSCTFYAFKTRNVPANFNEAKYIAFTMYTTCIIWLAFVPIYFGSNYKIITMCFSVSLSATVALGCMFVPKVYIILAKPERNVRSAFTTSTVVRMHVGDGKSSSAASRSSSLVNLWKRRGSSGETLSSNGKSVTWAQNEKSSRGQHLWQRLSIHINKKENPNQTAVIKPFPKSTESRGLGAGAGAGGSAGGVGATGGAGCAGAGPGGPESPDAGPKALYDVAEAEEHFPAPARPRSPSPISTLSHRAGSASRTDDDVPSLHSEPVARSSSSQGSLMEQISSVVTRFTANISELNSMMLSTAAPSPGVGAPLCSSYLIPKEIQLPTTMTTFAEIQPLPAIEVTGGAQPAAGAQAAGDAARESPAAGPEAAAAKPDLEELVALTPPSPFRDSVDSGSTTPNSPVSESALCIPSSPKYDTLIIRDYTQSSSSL

Row | SMILES | EC50 [nM]
1 | O=C1c2cc(COc3ccccc3)nn2CCN1c1cccc(F)c1 [Example 8] | 132
2 | O=C1c2cc(COc3ccccc3)nn2CCN1c1ccccc1F [Example 9] | 162

same assay, conditions: HEK cells transfected with human mGluR5 (H10H or H12H); in presence of EC20 glutamate

Row | SMILES | pEC50
3 | COCC1Cn2nc(COc3ccccc3)cc2C(=O)N1c1ccc(F)cc1 (stereo not drawn) [Example 267] | 6.03
4 | O=C1c2cc(COc3ccccc3)nn2CC(CO)N1c1ccc(F)cc1 (stereo not drawn) [Example 268] | <5.00
5 | O=C1c2cc(COc3ccccc3)nn2CC(CF)N1c1ccc(F)cc1 (stereo not drawn) [Example 269] | 6.16
6 | O=C1c2cc(COc3ccccc3)nn2CCN1c1cccc(C2CCOCC2)n1 [Example 274] | 5.59
7 | O=C1c2cc(COc3ccccc3)nn2CCN1c1cccc(C2CCNCC2)n1 [Example 275] | <4.52
8 | CNc1ccnc(N2CCn3nc(COc4ccccc4)cc3C2=O)n1 [Example 277] | 6.03
9 | O=C1c2cc(COc3ccccc3)nn2CCN1c1cccc(N2CCCC2)n1 [Example 281] | 6.58
10 | Nc1cccc(N2CCn3nc(COc4ccccc4)cc3C2=O)n1 [Example 285] | 6.13
11 | Cc1ccc(N2CCn3nc(COc4ccccc4)cc3C2=O)nc1N(C)C [Example 292] | 7.47
12 | COc1nc(N2CCn3nc(COc4ccccc4)cc3C2=O)ncc1Cl [Example 295] | 7.56
13 | COc1ncc(C)cc1N1CCn2nc(COc3ccccc3)cc2C1=O [Example 298] | 6.58
14 | COc1ccc(N2CCn3nc(COc4ccccc4)cc3C2=O)nc1OC [Example 301] | 7.02
15 | COCc1cc(F)ccc1N1CCn2nc(COc3ccccc3)cc2C1=O [Example 304] | 6.72
16 | CNc1cccc(OCc2cc3n(n2)CCN(c2ccc(F)cc2)C3=O)n1 [Example 311] | <4.52
17 | Cn1cc(N2CCn3nc(COc4ccccc4)cc3C2=O)cn1 [Example 320] | <5.00
18 | Cc1[nH]ncc1N1CCn2nc(COc3ccccc3)cc2C1=O [Example 322] | <5.00
19 | O=C1c2cc(COc3ccccc3)nn2CCN1c1nc2ccccc2o1 [Example 324] | 7.24
20 | COc1cc(N2CCn3nc(COc4ccccc4)cc3C2=O)ncn1 [Example 351] | 6.59
21 | Cn1cncc1N1CCn2nc(COc3ccccc3)cc2C1=O [Example 352] | <5.00

Further lines, results first:

Row | pEC50 | SMILES
22 | 5.90 | CN(C)c1ccnc(N2CCn3nc(COc4ccccc4)cc3C2=O)n1 [Example 276]
23 | 7.39 | CN(C)c1ccc(F)c(N2CCn3nc(COc4ccccc4)cc3C2=O)n1 [Example 283]
24 | 5.55 | CN(C)c1ccc(N2CCn3nc(COc4ccccc4)cc3C2=O)nn1 [Example 284]
25 | 6.40 | CN(C)c1nccnc1N1CCn2nc(COc3ccccc3)cc2C1=O [Example 288]
26 | 7.33 | Cc1cc(N(C)C)nc(N2CCn3nc(COc4ccccc4)cc3C2=O)c1 [Example 290]
27 | 7.40 | CN(C)c1nc(N2CCn3nc(COc4ccccc4)cc3C2=O)ccc1F [Example 305]
28 | 6.75 | CN(C)c1cccc(N2CCn3nc(COc4ccccn4)cc3C2=O)n1 [Example 313]
29 | 6.69 | CN(C)c1ccc(F)c(N2CCn3nc(COc4ccccn4)cc3C2=O)n1 [Example 314]
30 | 7.38 | CN(C)c1cccc(N2CCn3nc(COc4ccc(F)cc4)cc3C2=O)n1 [Example 317]

same assay, conditions: HEK cells transfected with human mGluR5 (H10H or H12H); in presence of EC20 glutamate; read-out: EC50

Row | SMILES | EC50 [nM]
31 | COCC1Cn2nc(COc3ccccc3)cc2C(=O)N1c1ccc(F)cc1 (stereo not drawn) [Example 267] | 933
32 | O=C1c2cc(COc3ccccc3)nn2CC(CO)N1c1ccc(F)cc1 (stereo not drawn) [Example 268] | > 10000
33 | O=C1c2cc(COc3ccccc3)nn2CC(CF)N1c1ccc(F)cc1 (stereo not drawn) [Example 269] | 692
34 | O=C1c2cc(COc3ccccc3)nn2CCN1c1cccc(C2CCOCC2)n1 [Example 274] | 2570
35 | O=C1c2cc(COc3ccccc3)nn2CCN1c1cccc(C2CCNCC2)n1 [Example 275] | > 30200
36 | CNc1ccnc(N2CCn3nc(COc4ccccc4)cc3C2=O)n1 [Example 277] | 933
37 | O=C1c2cc(COc3ccccc3)nn2CCN1c1cccc(N2CCCC2)n1 [Example 281] | 263
38 | Nc1cccc(N2CCn3nc(COc4ccccc4)cc3C2=O)n1 [Example 285] | 741
39 | Cc1ccc(N2CCn3nc(COc4ccccc4)cc3C2=O)nc1N(C)C [Example 292] | 34
40 | COc1nc(N2CCn3nc(COc4ccccc4)cc3C2=O)ncc1Cl [Example 295] | 28
41 | COc1ncc(C)cc1N1CCn2nc(COc3ccccc3)cc2C1=O [Example 298] | 260
42 | COc1ccc(N2CCn3nc(COc4ccccc4)cc3C2=O)nc1OC [Example 301] | 96
43 | COCc1cc(F)ccc1N1CCn2nc(COc3ccccc3)cc2C1=O [Example 304] | 190
44 | CNc1cccc(OCc2cc3n(n2)CCN(c2ccc(F)cc2)C3=O)n1 [Example 311] | > 30200
45 | Cn1cc(N2CCn3nc(COc4ccccc4)cc3C2=O)cn1 [Example 320] | > 10000
46 | Cc1[nH]ncc1N1CCn2nc(COc3ccccc3)cc2C1=O [Example 322] | > 10000
47 | O=C1c2cc(COc3ccccc3)nn2CCN1c1nc2ccccc2o1 [Example 324] | 58
48 | COc1cc(N2CCn3nc(COc4ccccc4)cc3C2=O)ncn1 [Example 351] | 260
49 | Cn1cncc1N1CCn2nc(COc3ccccc3)cc2C1=O [Example 352] | > 10000

Next, values leading:

Row | EC50 [nM] | SMILES
50 | 1260 | CN(C)c1ccnc(N2CCn3nc(COc4ccccc4)cc3C2=O)n1 [Example 276]
51 | 41 | CN(C)c1ccc(F)c(N2CCn3nc(COc4ccccc4)cc3C2=O)n1 [Example 283]
52 | 2820 | CN(C)c1ccc(N2CCn3nc(COc4ccccc4)cc3C2=O)nn1 [Example 284]
53 | 398 | CN(C)c1nccnc1N1CCn2nc(COc3ccccc3)cc2C1=O [Example 288]
54 | 47 | Cc1cc(N(C)C)nc(N2CCn3nc(COc4ccccc4)cc3C2=O)c1 [Example 290]
55 | 40 | CN(C)c1nc(N2CCn3nc(COc4ccccc4)cc3C2=O)ccc1F [Example 305]
56 | 178 | CN(C)c1cccc(N2CCn3nc(COc4ccccn4)cc3C2=O)n1 [Example 313]
57 | 204 | CN(C)c1ccc(F)c(N2CCn3nc(COc4ccccn4)cc3C2=O)n1 [Example 314]
58 | 42 | CN(C)c1cccc(N2CCn3nc(COc4ccc(F)cc4)cc3C2=O)n1 [Example 317]

same assay, conditions: maximum % effect in concentration-response curve, as percent of response to maximally effective glutamate

Row | SMILES | Emax (%) | Emax [%]
59 | O=C1c2cc(COc3ccccc3)nn2CCN1c1cccc(F)c1 [Example 8] | – | 81
60 | O=C1c2cc(COc3ccccc3)nn2CCN1c1ccccc1F [Example 9] | – | 82
61 | COCC1Cn2nc(COc3ccccc3)cc2C(=O)N1c1ccc(F)cc1 (stereo not drawn) [Example 267] | 70 | –
62 | O=C1c2cc(COc3ccccc3)nn2CC(CO)N1c1ccc(F)cc1 (stereo not drawn) [Example 268] | 27 | –
63 | O=C1c2cc(COc3ccccc3)nn2CC(CF)N1c1ccc(F)cc1 (stereo not drawn) [Example 269] | 58 | –
64 | O=C1c2cc(COc3ccccc3)nn2CCN1c1cccc(C2CCOCC2)n1 [Example 274] | 65 | –
65 | O=C1c2cc(COc3ccccc3)nn2CCN1c1cccc(C2CCNCC2)n1 [Example 275] | 36 | –
66 | CNc1ccnc(N2CCn3nc(COc4ccccc4)cc3C2=O)n1 [Example 277] | 63 | –
67 | O=C1c2cc(COc3ccccc3)nn2CCN1c1cccc(N2CCCC2)n1 [Example 281] | 68 | –
68 | Nc1cccc(N2CCn3nc(COc4ccccc4)cc3C2=O)n1 [Example 285] | 68 | –
69 | Cc1ccc(N2CCn3nc(COc4ccccc4)cc3C2=O)nc1N(C)C [Example 292] | 66 | –
70 | COc1nc(N2CCn3nc(COc4ccccc4)cc3C2=O)ncc1Cl [Example 295] | 69 | –
71 | COc1ncc(C)cc1N1CCn2nc(COc3ccccc3)cc2C1=O [Example 298] | 73 | –
72 | COc1ccc(N2CCn3nc(COc4ccccc4)cc3C2=O)nc1OC [Example 301] | 58 | –
73 | COCc1cc(F)ccc1N1CCn2nc(COc3ccccc3)cc2C1=O [Example 304] | 77 | –
74 | CNc1cccc(OCc2cc3n(n2)CCN(c2ccc(F)cc2)C3=O)n1 [Example 311] | 28 | –
75 | Cn1cc(N2CCn3nc(COc4ccccc4)cc3C2=O)cn1 [Example 320] | 61 | –
76 | Cc1[nH]ncc1N1CCn2nc(COc3ccccc3)cc2C1=O [Example 322] | 44 | –
77 | O=C1c2cc(COc3ccccc3)nn2CCN1c1nc2ccccc2o1 [Example 324] | 71 | –
78 | COc1cc(N2CCn3nc(COc4ccccc4)cc3C2=O)ncn1 [Example 351] | 66 | –
79 | Cn1cncc1N1CCn2nc(COc3ccccc3)cc2C1=O [Example 352] | 55 | –

The next lines start with results.

Row | Emax (%) | SMILES | Emax [%]
80 | 68 | CN(C)c1ccnc(N2CCn3nc(COc4ccccc4)cc3C2=O)n1 [Example 276] | –
81 | 77 | CN(C)c1ccc(F)c(N2CCn3nc(COc4ccccc4)cc3C2=O)n1 [Example 283] | –
82 | 53 | CN(C)c1ccc(N2CCn3nc(COc4ccccc4)cc3C2=O)nn1 [Example 284] | –
83 | 69 | CN(C)c1nccnc1N1CCn2nc(COc3ccccc3)cc2C1=O [Example 288] | –
84 | 56 | Cc1cc(N(C)C)nc(N2CCn3nc(COc4ccccc4)cc3C2=O)c1 [Example 290] | –
85 | 71 | CN(C)c1nc(N2CCn3nc(COc4ccccc4)cc3C2=O)ccc1F [Example 305] | –
86 | 74 | CN(C)c1cccc(N2CCn3nc(COc4ccccn4)cc3C2=O)n1 [Example 313] | –
87 | 70 | CN(C)c1ccc(F)c(N2CCn3nc(COc4ccccn4)cc3C2=O)n1 [Example 314] | –
88 | 66 | CN(C)c1cccc(N2CCn3nc(COc4ccc(F)cc4)cc3C2=O)n1 [Example 317] | –

test system: not given; assay: not given; settings: not given

Row | SMILES | melting point [°C]
89 | O=C1c2cc(COc3ccccc3)nn2CCN1c1cccc(F)c1 [Example 8] | 155
90 | O=C1c2cc(COc3ccccc3)nn2CCN1c1ccccc1F [Example 9] | 154.7
